Laboratory results reported in publication PMC11178805, “Ligand-based design of [^18F]OXD-2314 for PET imaging in non-Alzheimer’s disease tauopathies” (Nature Communications, 2024).
Values joined by “and” are separate entries in the source; they are usually repeats but may differ in a detail not shown here. Equal values may be shown once.

Experiments:
5-lipoxygenase = molecular target: T1, 5-lipoxygenase (Homo sapiens, UniProt P09917); experiment: In vitro pharmacology enzyme screen (Eurofins): 5-lipoxygenase; type: biochemical
T1 construct: purchased Eurofins, France (contract screening)
T1 sequence (P09917 1-674): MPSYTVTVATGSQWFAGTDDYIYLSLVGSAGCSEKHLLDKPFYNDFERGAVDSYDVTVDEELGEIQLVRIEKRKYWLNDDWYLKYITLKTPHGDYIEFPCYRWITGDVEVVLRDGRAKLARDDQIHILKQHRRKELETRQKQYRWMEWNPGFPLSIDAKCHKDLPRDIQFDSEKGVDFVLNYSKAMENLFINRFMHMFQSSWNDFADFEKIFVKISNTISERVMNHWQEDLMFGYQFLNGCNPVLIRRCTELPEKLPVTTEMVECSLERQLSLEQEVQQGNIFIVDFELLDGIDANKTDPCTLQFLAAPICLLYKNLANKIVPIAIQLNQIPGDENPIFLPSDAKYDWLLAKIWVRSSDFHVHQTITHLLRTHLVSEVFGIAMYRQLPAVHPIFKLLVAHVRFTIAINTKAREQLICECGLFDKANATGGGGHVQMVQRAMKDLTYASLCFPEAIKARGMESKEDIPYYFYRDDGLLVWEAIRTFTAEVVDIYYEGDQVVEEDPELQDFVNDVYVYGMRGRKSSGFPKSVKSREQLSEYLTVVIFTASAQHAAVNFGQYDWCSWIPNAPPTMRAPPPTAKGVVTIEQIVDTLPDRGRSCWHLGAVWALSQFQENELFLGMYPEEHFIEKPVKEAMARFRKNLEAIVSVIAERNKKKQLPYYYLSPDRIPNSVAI
Experimental: (§1) OXD-2314 binding to CNS receptors was calculated as a percentage of inhibition of a receptor-specific radioligand. Enzyme inhibition was calculated as the percent inhibition of baseline enzyme activity where inhibition above 50% was considered significant. […] Norepinephrine transports are expressed in low concentration throughout the brain and its relative concentration are not affected by aging or neurodegeneration. 5-lipoxygenase may be overexpressed in aging brain and play some role in neurodegeneration, which could be necessary to further investigate in vivo[42]. Off-target binding to monoamine oxidase A and B (MAO-A and MAO-B) has been seen with some tau PET radiotracers[43],[44].

MAO-A = molecular target: T2, MAO-A (Homo sapiens, UniProt P21397); experiment: In vitro pharmacology screen (Eurofins): MAO-A; type: binding; conditions: read-out: interaction with MAO-A (% inhibition)
T2 construct: purchased Eurofins, France (contract screening)
T2 sequence (P21397 1-527): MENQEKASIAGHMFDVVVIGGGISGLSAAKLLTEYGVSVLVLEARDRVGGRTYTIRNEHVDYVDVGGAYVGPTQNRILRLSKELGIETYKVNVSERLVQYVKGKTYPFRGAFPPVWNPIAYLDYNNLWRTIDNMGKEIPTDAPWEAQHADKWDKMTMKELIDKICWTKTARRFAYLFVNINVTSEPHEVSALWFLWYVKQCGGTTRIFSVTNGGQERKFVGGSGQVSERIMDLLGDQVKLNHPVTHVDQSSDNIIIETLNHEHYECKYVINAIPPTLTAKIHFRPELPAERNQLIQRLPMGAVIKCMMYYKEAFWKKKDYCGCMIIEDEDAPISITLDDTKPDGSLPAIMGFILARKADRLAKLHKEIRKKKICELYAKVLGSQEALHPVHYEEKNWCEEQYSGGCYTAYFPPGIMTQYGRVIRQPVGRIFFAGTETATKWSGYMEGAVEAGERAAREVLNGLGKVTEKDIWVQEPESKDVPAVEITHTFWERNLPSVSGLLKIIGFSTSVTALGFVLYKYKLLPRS
Experimental: as §1

[1] = Dynamic brain PET-CT with [^18F]OXD-2314 in rats; type: in vivo
Experimental: Eight rats were used in preclinical PET scans with [^18F]OXD-2314: two for dynamic brain imaging, and six for whole-body biodistribution of radioactivity and dose estimation. Another five rats were used for radiometabolite analysis in brain homogenates and blood plasma. Dynamic PET-CT imaging in healthy wild-type (wt) rats were performed following intravenous administration of [^18F]OXD-2314 (17.9 and 23.8 MBq, n = 2, one female and one male). Radioactivity reached an initial peak of 2.3 standardized uptake value (SUV) within two minutes in whole brain, followed by a steady washout of radioactivity in the brain to below 0.3 SUV at the end of the 120 min acquisition time (Fig. 4). Distribution of radioactivity was homogenous among brain regions, but with the female rat having slower clearance of radioactivity from the brain and thus higher overall brain radioactivity than the male rat.
A total of 8 healthy adult rats (Sprague-Dawley, 384 ± 56 g; 4/4 M/F) underwent PET imaging following bolus injection of [^18F]OXD-2314 (20.5 ± 4.1 MBq), with two animals (M/F) scanned for 120 min with the head in the centre of PET field-of-view (FOV) whereas six animals (3/3 M/F) scanned for 180 min at three bed positions (head-to-bottom) with 15 frames (2×15 s, 2×30 s, 2×60 s, 1×120 s, 1×180 s, 2×240 s, 2×300 s, and 3×600 s) to cover the whole body. PET images were acquired using a nanoScan™ PET/CT scanner (Mediso, Budapest, Hungary) with rats anesthetized under isoflurane in O2 (1.5–2%, 1 L/min) throughout the imaging session and monitored closely for body temperature and respiration rate. […] Normalized cumulated activities of each organ were calculated using trapezoidal integration of the area under the TACs plus extrapolation of the TAC to infinity with natural decay of the radiotracer. […] SUV were calculated by normalizing regional radioactivity for injected radioactivity and body weight.

| inhibition at 10 µM (5-lipoxygenase) [%] | inhibition at 10 µM (MAO-A) [%] | Structure (SMILES) | ratio initial maximum to late minimum brain radioactivity ([1]; rats) | whole brain radioactivity at end of acquisition ([1]; rats, end of the 120 min acquisition) | initial peak whole brain uptake (SUV) ([1]; wild-type rats, i.v., within two minutes, n = 2) |
| --- | --- | --- | --- | --- | --- |
| 50.1 | -1.7 | COC1CCCN(c2ccc(-c3cc4cc(O)ccc4[nH]3)c(F)n2)C1 (centres unmarked) [OXD-2314, 2-(2-fluoro-6-(3-methoxypiperidin-1-yl)pyridin-3-yl)-1H-indol-5-ol] |  |  |  |
|  |  | CO[C@H]1CCCN(c2ccc(-c3cc4cc(O)ccc4[nH]3)c([18F])n2)C1 [[^18F]OXD-2314] | ~ 8 | below 0.3 SUV | 2.3 SUV and > 2 SUV |
